Results on twelve compounds are retold here after ChEMBL document CHEMBL1201862, “PubChem BioAssay data set” (2004).

Common to all, as to assay: NCI tumour cell line growth inhibition, 48 h
Test [1] has as its system A549.
For test [2], the system named is EKVX.
For test [3], the system named is HCT-15.
Test [4] deals with HL-60.
For test [5], the system named is HT-29.
The subject of test [6] is IGROV-1.
Test [7] relates to KM12.
For test [8], the system named is NCI-H226.
The test system of test [9] is NCI-H522.
For test [10], the system named is OVCAR-3.
The subject of test [11] is OVCAR-4.
Test [12] deals with RPMI-8226.
In test [13] the test system is SF-295.
For test [14], the system named is SK-MEL-28.
Test [15] concerns SR.
Test [16] relates to TK-10.
For test [17], the system named is U-251.
In test [18] the test system is UACC-62.

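Test compounds were applied to cells in 96-well plates for 48 hours at 5 doses. GI50 = concentration required for 50% inhibition of growth.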 Active and inactive are the calls of the source. No stated cut-off is given here; in the data, active = GI50 up to about 1.1 µM and inactive = higher. A value given as a limit tells only on which side of the number the result lay.

For the compound `O=C1c2ccccc2C2C1N2C(=O)C(F)(F)F` (stereo not given), the GI50 in test [1] was > 100 µM (inactive); in test [2], > 100 µM (inactive); in [3], over 100 µM; in [4], 24.7 µM (inactive); in test [5], 74.8 µM (inactive); in test [6], > 100 µM (inactive). Also, the GI50 in test [7], in test [8], in test [9], in test [10], in test [11] and in [12] was > 100 µM (inactive) throughout. Further, the GI50 in test [13] was > 100 µM (inactive); in test [14] it was > 100 µM (inactive); in test [15], 26.9 µM (inactive); in test [16], > 100 µM (inactive); in [17], > 100 µM (inactive); in [18] it was > 100 µM (inactive).

Turning to `CC(C)C(=S)N(C)O`, the GI50 in [1] was 12.4 µM (inactive); in test [2] it was 23.1 µM (inactive); in [3], 24.2 µM; in test [4] it was 1.35 µM (inactive); in [5], 1.46 µM (inactive); in test [6] it was > 62.5 µM (inactive). Also, the GI50 in [7] was 17.7 µM (inactive); in test [8] it was 44 µM (inactive); in test [9] it was 6.08 µM (inactive); in test [10], 2.82 µM (inactive); in test [11] it was 9.89 µM (inactive); in [12] it was 0.518 µM (active). The GI50 in test [13] is 16.8 µM (inactive); in test [14] it was 37.6 µM (inactive); in test [15], 0.481 µM (active); in test [16] it was > 51.3 µM (inactive); in [17] it was 28.4 µM (inactive); in test [18] it was 10.1 µM (inactive).

In the case of `COC(=O)CC1NC(=O)C1C(C)(OC)OC` (stereo not given), the GI50 in [1] is > 100 µM (inactive); in test [2] it was > 100 µM (inactive); in [3] it was over 100 µM; in test [4], > 100 µM (inactive); in [5] it was > 100 µM (inactive); in test [6], > 100 µM (inactive). The GI50 in test [8], in [10], in test [11], in [12], in [13] and in test [14] was > 100 µM (inactive) in each case. For the same compound, the GI50 in test [15], in test [16], in [17] and in [18] was > 100 µM (inactive) throughout.

Turning to `CC(=O)OC1COC(Nc2ccc(C(C)=O)cc2)C(OC(C)=O)C1OC(C)=O` (stereo not given), the GI50 in test [1] is > 100 µM (inactive); in test [2], > 100 µM (inactive); in [3], over 100 µM; in test [5], > 100 µM (inactive); in test [6], > 100 µM (inactive); in test [7] it was > 100 µM (inactive). Moreover, the GI50 in test [8], in test [9], in test [10], in test [11], in test [12] and in test [13] was > 100 µM (inactive) in each case. Also, the GI50 in test [14], in test [15], in test [16], in [17] and in test [18] was > 100 µM (inactive) throughout.

For the compound `CC(=O)O/N=C/c1ncccc1OC(C)=O`, the GI50 is > 100 µM (inactive) in test [1]; > 100 µM (inactive) in test [2]; over 100 µM in test [3]; > 100 µM (inactive) in [4]; > 100 µM (inactive) in test [5]; > 100 µM (inactive) in test [6]. Besides, the GI50 in test [7], in test [8], in [9], in test [10], in [11] and in [13] was > 100 µM (inactive) throughout. Also, the GI50 in [14], in [15], in test [16], in test [17] and in test [18] was > 100 µM (inactive) throughout.

For `COC1OC2COC(c3ccccc3)OC2C(O)C1Br` (stereo not given), the GI50 in test [1] was > 100 µM (inactive); in test [3], over 100 µM; in test [4], > 100 µM (inactive); in test [5], > 100 µM (inactive); in [6], > 100 µM (inactive); in test [7], > 100 µM (inactive). For the same compound, the GI50 in [9], in test [10], in test [11], in [12], in test [13] and in test [14] was > 100 µM (inactive) in each case. Moreover, the GI50 in [15], in test [16], in test [17] and in test [18] was > 100 µM (inactive) in each case.

Turning to `CC1=C(c2ccccc2)CON(c2ccccc2)C1`, the GI50 is 54.5 µM (inactive) in test [1]; 46.6 µM (inactive) in test [2]; 28.4 µM in [3]; 26.6 µM (inactive) in [4]; 36.9 µM (inactive) in test [5]; 43.3 µM (inactive) in test [6]. Besides, the GI50 in test [7] was 22.7 µM (inactive); in test [8], 85.7 µM (inactive); in test [9], 15.2 µM (inactive); in test [10] it was 85.7 µM (inactive); in [11], > 100 µM (inactive); in [12], 28.4 µM (inactive). Moreover, the GI50 in [13] is 30.6 µM (inactive); in test [14], 31 µM (inactive); in test [15], 31.3 µM (inactive); in test [17] it was 25.8 µM (inactive); in test [18], 38.5 µM (inactive).

With `O=C1c2ccccc2C(=O)N1C/C=C/CO`, the GI50 in test [1] is > 100 µM (inactive); in test [3], over 100 µM; in test [4] it was > 100 µM (inactive); in [6], > 100 µM (inactive); in test [7] it was > 100 µM (inactive); in [8], > 100 µM (inactive). For the same compound, the GI50 in test [9] was 98.2 µM (inactive); in test [10], > 100 µM (inactive); in test [11] it was > 100 µM (inactive); in [12] it was > 100 µM (inactive); in [14] it was > 100 µM (inactive); in test [15], > 100 µM (inactive). The GI50 in [16], in test [17] and in test [18] was > 100 µM (inactive) throughout.

In the case of `CC(=O)Nc1ccc(C(=O)N2N=C(C)/C(=C/c3cccc([N+](=O)[O-])c3)C2=O)cc1`, the GI50 in test [1], in [2], in test [4], in test [5], in [7] and in [8] was > 100 µM (inactive) each time. In addition, the GI50 in test [9], in test [10], in test [11], in test [12], in test [13] and in test [14] was > 100 µM (inactive) in each case. Moreover, the GI50 in test [15] and in test [16] was > 100 µM (inactive) in each case.

Turning to `COc1cc(/C=C2\[C@H]3c4c(c(OC)c(C)c(OC)c4OC)CC(C(=O)N2Cc2ccccc2)N3C)c(OC)c(C)c1OC`, the GI50 in test [1] is > 100 µM (inactive); in [2] it was 26.1 µM (inactive); in [4] it was 15.7 µM (inactive); in [5], 19.1 µM (inactive); in [6] it was 21.8 µM (inactive); in test [7] it was 36 µM (inactive). The GI50 in test [8] is 10.4 µM (inactive); in [9] it was 13.1 µM (inactive); in test [10], 16.7 µM (inactive); in [11] it was 16.1 µM (inactive); in [12], 20.6 µM (inactive); in test [13] it was 19.8 µM (inactive). The GI50 in test [14] was 25.4 µM (inactive); in test [15], 21.2 µM (inactive); in test [16], 33.5 µM (inactive); in test [17], 19.5 µM (inactive); in [18], 16.4 µM (inactive).

On to `CN1N=C2c3ccccc3CC[C@H]2C1c1cccc(O)c1` (stereo not given in full), for which the GI50 in test [1] was 85.5 µM (inactive); in test [2], > 100 µM (inactive); in test [3], over 100 µM; in [4] it was > 100 µM (inactive); in test [5] it was 55.1 µM (inactive); in test [6] it was > 100 µM (inactive). Further, the GI50 in test [7] is > 100 µM (inactive); in [8] it was > 100 µM (inactive); in [9], > 100 µM (inactive); in test [10], > 100 µM (inactive); in [11] it was 75.9 µM (inactive); in [12], > 100 µM (inactive). For the same compound, the GI50 in test [13], in test [14], in [15], in test [16], in test [17] and in [18] was > 100 µM (inactive) throughout.

As to `COC1CC2C3/C(=N/Nc4ccc([N+](=O)[O-])cc4[N+](=O)[O-])CCC2(C)C3C1` (stereo not given), the GI50 in test [1] is > 100 µM (inactive); in [3], over 100 µM; in test [4], 52.6 µM (inactive); in test [5] it was > 10 µM (inactive); in [6], > 10 µM (inactive); in test [7], > 100 µM (inactive). In addition, the GI50 in test [8] was > 10 µM (inactive); in test [9], > 10 µM (inactive); in test [10], > 10 µM (inactive); in [11], > 10 µM (inactive); in test [12], 78 µM (inactive); in [13] it was > 10 µM (inactive). The GI50 in test [14] is > 100 µM (inactive); in [15], 37.1 µM (inactive); in test [16], > 100 µM (inactive); in test [17] it was > 10 µM (inactive); in test [18], > 10 µM (inactive).
